Test results as given in US20060004029A1, “Nitrogen-containing aromatic derivatives” (priority 2003, published 2006).

What was measured:
[1] = target: T1, FGFR1 (Homo sapiens, UniProt P11362); test: Inhibition against receptor tyrosine kinase activity (HTRF), FGFR1; type: biochemical; settings: His6-FGFR1 cytoplasmic domain, biotin-poly(GT), HTRF; read-out: FGFR1 kinase IC50
T1 construct: made in house; host or cells: Sf9 insect cells, baculovirus (pFastBacHis), by the same method as VEGFR2
Description: This assay is used to determine inhibition of a test substance on tyrosine kinase activity. DNA coding for the cytoplasmic domain of VEGFR2 is obtained by total cDNA synthesis (Edwards M, International Biotechnology Lab 5(3), 19-25, 1987) or by cloning. Expression in an appropriate expression system can produce a polypeptide with tyrosine kinase activity. […] For VEGFR2 (GenBank Accession No. L04947), the 1.7 kb DNA fragment described by Terman et al. (Oncogene, 6(9), 1677-1683, 1991), coding for the cytoplasmic domain, beginning with lysine 791 and including the termination codon, was isolated from a human placental cDNA library (purchased from Clontech Laboratories, Inc.) and cloned in a Baculovirus expression vector (pFastBacHis, purchased from GIBCO BRL). The recombinant construct was transfected into insect cells (Spondoptea frugiperda9 (Sf9)) to prepare a recombinant Baculovirus. (Instructions for preparation and use of recombinant Baculovirus may be found in standard texts, such as “Bac-To-Bac Baculovirus Expression System” (GIBCO BRL).) The cytoplasmic fragment starting from lysine 398 (FGFR1, GenBank Accession No. X52833), the cytoplasmic fragment starting from lysine 558 (PDGFRβ, GenBank Accession No. M21616) or the cytoplasmic fragment starting from lysine 974 (HGFR, GenBank Accession No. J02958) may be cloned and expressed by the same method for use in assays for other tyrosine kinases. EGFR was purchased from Sigma Co. (Product No. E-2645).
(§1) For expression of the VEGFR2 tyrosine kinase, Sf9 cells were infected with the VEGFR2 recombinant virus and collected after 48 hours. The collected cells were rinsed with ice-cooled phosphate buffered saline (PBS) and then resuspended using 20 ml of ice-cooled Lysis Buffer (50 mM Tris-HCl (pH 8.5), 5 mM 2-mercaptoethanol, 100 mM KCl, 1 mM phenylmethylsulfonyl fluoride, 1% (v/v) NP-40) per 1.5×10^8 cells. The suspension was centrifuged at 12,000 rpm for 30 minutes at 4° C. and the supernatant was obtained. The supernatant was added to a Ni-NTA agarose column (3 ml, purchased from Qiagen) equilibrated with Buffer A {20 mM Tris-HCl (pH 8.5), 5 mM 2-mercaptoethanol, 500 mM KCl, 20 mM imidazole, 10% (v/v) glycerol}. The column was washed with 30 ml of Buffer A, and then with 6 ml of Buffer B {20 mM Tris-HCl (pH 8.5), 5 mM 2-mercaptoethanol, 1M KCl, 10% (v/v) glycerol}, and finally with 6 ml of Buffer A. After washing, it was eluted with 6 ml of Buffer C {20 mM Tris-HCl (pH 8.5), 5 mM 2-mercaptoethanol, 100 mM KCl, 100 mM imidazole, 10% (v/v) glycerol}. The eluate was placed on a dialysis membrane (purchased from Spectrum Laboratories) and dialyzed with a dialysis buffer {20 mM Tris-HCl (pH 7.5), 10% (v/v) glycerol, 1 mM dithiothreitol, 0.1 mM Na3VO4, 0.1 mM EGTA}. After dialysis, it was supplied for SDS-electrophoresis, and the recombinant protein (His6-VEGFR2, cytoplasmic domain of VEGFR2 fused with 6 histidine residues at the N-terminus) detected at a molecular weight of approximately 100 kDa with Coumassie Brilliant Blue staining was assayed using BSA (bovine serum albumin, purchased from Sigma Co.) as the standard substance, and stored at −80° C. until use. Using the same method for the cytoplasmic domains of FGFR1, PDGFRβ and HGFR yielded respective recombinant proteins fused with 6 histidine residues at the N-terminal (His6-FGFR1, His6-PDGFRβ or His6-HGFR).
The tyrosine kinase reaction was conducted as follows. In the case of VEGFR2, for example, 10 μl of a kinase reaction solution {200 mM Hepes (pH 7.4), 80 mM MgCl2, 16 mM MnCl2, 2 mM Na3VO4}, 250 ng of biotin-bound poly(Glu4:Tyr1) (biotin-poly(GT), purchased from CIS Diagnostics Co.) (6 μl of a 15-fold dilution with distilled water), 15 ng of His6-VEGFR2 (10 μl of a 240-fold dilution with 0.4% BSA solution) and the test substance dissolved in dimethyl sulfoxide (4 μl of a 100-fold dilution with 0.1% BSA solution) were added into each well of a 96-well round-bottom plate (NUNC Co., Product No. 163320), to a total of 30 μl. […]

[2] = target: T2, VEGFR2 (Homo sapiens, UniProt P35968); test: Inhibition against receptor tyrosine kinase activity (HTRF), VEGFR2; type: biochemical; settings: His6-VEGFR2 cytoplasmic domain, biotin-poly(GT), HTRF; read-out: VEGFR2 kinase IC50
T2 construct: coding for the cytoplasmic domain, beginning with lysine 791 and including the termination codon; made in house; host or cells: Sf9 insect cells, baculovirus (pFastBacHis)
T2 sequence (P35968 786-1356 limits assumed): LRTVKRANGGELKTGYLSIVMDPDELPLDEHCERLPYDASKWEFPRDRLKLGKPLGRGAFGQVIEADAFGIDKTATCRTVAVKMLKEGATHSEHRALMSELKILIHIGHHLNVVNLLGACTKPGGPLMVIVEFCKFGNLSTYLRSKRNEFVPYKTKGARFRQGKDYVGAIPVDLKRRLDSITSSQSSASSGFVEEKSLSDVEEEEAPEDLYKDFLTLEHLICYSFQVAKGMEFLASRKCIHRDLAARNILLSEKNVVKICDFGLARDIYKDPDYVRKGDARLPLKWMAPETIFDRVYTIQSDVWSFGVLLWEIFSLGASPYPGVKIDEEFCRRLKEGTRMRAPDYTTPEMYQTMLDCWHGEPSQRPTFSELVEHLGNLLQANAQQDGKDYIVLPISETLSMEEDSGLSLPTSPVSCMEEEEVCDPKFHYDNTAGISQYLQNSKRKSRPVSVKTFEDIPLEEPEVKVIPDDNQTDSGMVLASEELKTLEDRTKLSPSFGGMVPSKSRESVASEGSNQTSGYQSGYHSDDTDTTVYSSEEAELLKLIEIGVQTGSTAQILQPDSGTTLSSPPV
Procedure: This assay is used to determine inhibition of a test substance on tyrosine kinase activity. […] Expression in an appropriate expression system can produce a polypeptide with tyrosine kinase activity. […] The recombinant construct was transfected into insect cells (Spondoptea frugiperda9 (Sf9)) to prepare a recombinant Baculovirus.
as §1, with “After dialysis, it was supplied for SDS-electrophoresis, and the recombinant protein (His6-VEGFR2, cytoplasmic domain of VEGFR2 fused with 6 histidine residues at the N-terminus) detected at a molecular weight of approximately 100 kDa with Coumassie Brilliant Blue staining was assayed using BSA (bovine serum albumin, purchased from Sigma Co.) as the standard substance, and stored at −80° C. until use.” left out
The tyrosine kinase reaction was conducted as follows. […] Next, 10 μl of 4 μM ATP (diluted with distilled water) was added prior to incubation at 30° C. for 10 minutes, and then 10 μl of 500 mM EDTA (pH 8.0) was added.
The tyrosine phosphorylation rate for the biotin-poly(GT) was expressed as the delta F % value as described in the HTRF Standard Experiment Methods text by CIS Diagnostics Co. The delta F % value in the presence of the test substance was determined as a ratio (%) with the delta F % value with addition of His6-VEGFR2 in the absence of the test substance defined as 100% and the delta F % value in the absence of both the test substance and His6-VEGFR2 defined as 0%.

T1 sequence (P11362 398-822 limits assumed): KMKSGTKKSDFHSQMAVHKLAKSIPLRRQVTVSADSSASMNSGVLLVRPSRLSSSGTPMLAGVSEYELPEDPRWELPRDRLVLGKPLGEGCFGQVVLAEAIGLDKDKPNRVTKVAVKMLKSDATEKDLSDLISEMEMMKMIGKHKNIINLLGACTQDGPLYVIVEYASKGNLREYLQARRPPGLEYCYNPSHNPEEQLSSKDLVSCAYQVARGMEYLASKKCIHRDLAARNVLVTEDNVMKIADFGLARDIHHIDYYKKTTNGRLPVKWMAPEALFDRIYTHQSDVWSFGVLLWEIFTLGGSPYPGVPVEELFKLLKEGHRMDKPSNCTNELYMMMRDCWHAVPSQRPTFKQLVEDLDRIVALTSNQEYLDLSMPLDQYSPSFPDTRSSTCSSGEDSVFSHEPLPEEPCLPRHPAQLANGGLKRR

IC50 [1] | IC50 [2] | Compound
0.024 µM | 0.014 µM | O=C(Nc1cc(Oc2ccc3c(ccn3C(=O)NC3CC3)c2)ccn1)N1CCCC1 [Example 88, N1-Cyclopropyl-5-(2-((pyrrolidin-1-ylcarbonyl)amino)-4-pyridyl)oxy-1H-1-indolecarboxamide]
0.019 µM | 0.0039 µM | CNC(=O)n1cc(Cl)c2cc(Oc3ccnc(NC(=O)N4CCC(O)CC4)c3)ccc21 [Example 104, N1-Methyl-3-chloro-5-(2-((4-hydroxypiperidino)carbonyl)amino-4-pyridyl)oxy-1H-1-indolecarboxamide]
0.087 µM | 0.014 µM | CNC(=O)Nc1cc(Oc2ccc3c(ccn3C(=O)NC)c2)ccn1 [Example 116, N1-Methyl-5-(2-((methylamino)carbonyl)amino-4-pyridyl)oxy-1H-1-indolecarboxamide]
0.12 µM | 0.021 µM | CCN(CC)C(=O)Nc1cc(Oc2ccc3c(ccn3C(=O)NC)c2)ccn1 [Example 119, N1-Methyl-5-(2-((diethylamino)carbonyl)amino-4-pyridyl)oxy-1H-1-indolecarboxamide]
0.19 µM | 0.0063 µM | C#CCNC(=O)n1ccc2cc(Oc3ccnc(NC(=O)N4CCCC4)c3)ccc21 [Example 139, N1-(2-Propynyl)-5-(2-((pyrrolidin-1-yl)carbonyl)amino-4-pyridyl)oxy-1H-1-indolecarboxamide]
0.0035 µM | 0.0041 µM | CNC(=O)n1ccc2cc(Oc3ccnc(NC(=O)N4CCC4)c3)ccc21 [Example 206, N1-Methyl-5-(2-(azetidin-1-ylcarbonyl)amino-4-pyridyl)oxy-1H-1-indolecarboxamide]
0.012 µM | 0.0046 µM | CCNC(=O)n1ccc2cc(Oc3ccnc(NC(=O)N4CCC4)c3)ccc21 [Example 207, N1-Ethyl-5-(2-(azetidin-1-ylcarbonyl)amino-4-pyridyl)oxy-1H-1-indolecarboxamide]
0.0068 µM | 0.0077 µM | O=C(Nc1cc(Oc2ccc3c(ccn3C(=O)NC3CC3)c2)ccn1)N1CCC1 [Example 208, N1-Cyclopropyl-5-(2-(azetidin-1-ylcarbonyl)amino-4-pyridyl)oxy-1H-1-indolecarboxamide]
0.029 µM | 0.017 µM | CNC(=O)n1ccc2cc(Oc3ccnc(NC(=O)N4CCC(N5CCOCC5)CC4)c3)ccc21 [Example 209, N1-Methyl-5-(2-(((4-(morpholin-4-yl)piperidin-1-yl)carbonyl)amino)pyridin-4-yloxy)-1H-1-indolecarboxamide]
0.04 µM | 0.0081 µM | CNC(=O)n1ccc2cc(Oc3ccnc(NC(=O)N4CCC(N5CCC5)CC4)c3)ccc21 [Example 210, N1-Methyl-5-(2-(((4-(azetidin-1-yl)piperidin-1-yl)carbonyl)amino)pyridin-4-yloxy)-1H-1-indolecarboxamide]
0.036 µM | 0.045 µM | CCN(CC)C1CCN(C(=O)Nc2cc(Oc3ccc4c(ccn4C(=O)NC)c3)ccn2)CC1 [Example 211, N1-Methyl-5-(2-(((4-(diethylamino)piperidin-1-yl)carbonyl)amino)pyridin-4-yloxy)-1H-1-indolecarboxamide]
0.019 µM | 0.0086 µM | CNC(=O)n1ccc2cc(Oc3ccnc(NC(=O)N4CCC(N5CCC(O)CC5)CC4)c3)ccc21 [Example 212, N1-Methyl-5-(2-(((4-(4-hydroxypiperidin-1-yl)piperidin-1-yl)carbonyl)amino)pyridin-4-yloxy)-1H-1-indolecarboxamide]
0.33 µM | 0.01 µM | CCCNC(=O)n1ccc2cc(Oc3ccnc(NC(=O)N4CCCC4)c3)ccc21 [Example 213, N1-Propyl-5-(2-(pyrrolidin-1-ylcarbonyl)amino-4-pyridyl)oxy-1H-1-indolecarboxamide]
0.0041 µM | 0.0045 µM | N1-Methyl-5-(2-((4-(2-hydroxy-2-methylpropionyl)piperazin-1-yl)carbonyl)amino-4-pyridyl)oxy-1H-indolecarboxamide [Example 28]
